Structures are written as SMILES.

This note sets out measurements from patent US11447466B2, “Substituted indole compounds useful as inhibitors of TLR7/8/9” (BRISTOL-MYERS SQUIBB COMPANY, priority 2017, dated 2022).

Common to all, as to type: cell-based
One assay has as its target T1, human TLR7 (Homo sapiens, UniProt Q9NYK1).
T1 construct: host or cells: HEK-Blue cells
T1 sequence (Q9NYK1 27-1049): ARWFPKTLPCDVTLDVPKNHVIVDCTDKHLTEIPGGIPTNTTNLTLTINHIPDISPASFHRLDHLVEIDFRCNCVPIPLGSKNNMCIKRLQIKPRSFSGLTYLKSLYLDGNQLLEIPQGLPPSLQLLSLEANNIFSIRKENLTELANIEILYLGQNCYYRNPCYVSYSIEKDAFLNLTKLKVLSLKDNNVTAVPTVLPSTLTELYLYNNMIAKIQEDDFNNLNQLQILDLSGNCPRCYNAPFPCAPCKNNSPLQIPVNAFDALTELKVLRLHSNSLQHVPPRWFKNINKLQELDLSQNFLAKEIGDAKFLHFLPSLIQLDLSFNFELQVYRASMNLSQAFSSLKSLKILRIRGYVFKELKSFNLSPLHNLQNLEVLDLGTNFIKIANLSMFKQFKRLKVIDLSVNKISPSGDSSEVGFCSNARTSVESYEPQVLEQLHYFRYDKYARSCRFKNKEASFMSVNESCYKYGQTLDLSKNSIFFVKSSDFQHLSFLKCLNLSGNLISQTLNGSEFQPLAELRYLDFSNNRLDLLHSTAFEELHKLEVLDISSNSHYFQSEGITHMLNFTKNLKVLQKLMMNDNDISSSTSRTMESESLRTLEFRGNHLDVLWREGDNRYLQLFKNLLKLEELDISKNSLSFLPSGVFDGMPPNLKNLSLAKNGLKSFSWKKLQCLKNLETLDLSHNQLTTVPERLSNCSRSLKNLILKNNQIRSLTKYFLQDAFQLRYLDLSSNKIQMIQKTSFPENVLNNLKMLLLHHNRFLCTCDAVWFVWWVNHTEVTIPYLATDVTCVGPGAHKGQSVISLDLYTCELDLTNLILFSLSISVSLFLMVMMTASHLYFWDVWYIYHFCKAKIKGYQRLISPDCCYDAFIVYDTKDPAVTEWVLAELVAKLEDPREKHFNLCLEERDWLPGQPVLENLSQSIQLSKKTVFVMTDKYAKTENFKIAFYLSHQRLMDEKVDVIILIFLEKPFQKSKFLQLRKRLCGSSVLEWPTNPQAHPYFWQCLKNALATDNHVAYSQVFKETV
The assay can be described thus: TLR7 inhibition reporter assay (HEK-Blue SEAP reporter, gardiquimod stimulation). Conditions: HEK-Blue cells overexpressing human TLR7, SEAP reporter, gardiquimod 7.5 μM, 22 hour incubation. The procedure, abridged:
(§1)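 Dose–response from 0.05 nM to 50 μM was run in HEK-Blue human TLR7, TLR8 and TLR9 reporter cells. After 30 min at room temperature with compound, ligand was added (TLR7 gardiquimod 7.5 μM; TLR8 R848 15.9 μM; TLR9 ODN2006 5 nM) and SEAP measured next day, at 22 h.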
Background: Reporter assays use an easily measured gene product as a stand-in for the process of interest.

For the next assay, the target named is T2, human TLR8 (Homo sapiens, UniProt Q9NR97).
T2 construct: host or cells: HEK-Blue cells
T2 sequence (Q9NR97 27-1041): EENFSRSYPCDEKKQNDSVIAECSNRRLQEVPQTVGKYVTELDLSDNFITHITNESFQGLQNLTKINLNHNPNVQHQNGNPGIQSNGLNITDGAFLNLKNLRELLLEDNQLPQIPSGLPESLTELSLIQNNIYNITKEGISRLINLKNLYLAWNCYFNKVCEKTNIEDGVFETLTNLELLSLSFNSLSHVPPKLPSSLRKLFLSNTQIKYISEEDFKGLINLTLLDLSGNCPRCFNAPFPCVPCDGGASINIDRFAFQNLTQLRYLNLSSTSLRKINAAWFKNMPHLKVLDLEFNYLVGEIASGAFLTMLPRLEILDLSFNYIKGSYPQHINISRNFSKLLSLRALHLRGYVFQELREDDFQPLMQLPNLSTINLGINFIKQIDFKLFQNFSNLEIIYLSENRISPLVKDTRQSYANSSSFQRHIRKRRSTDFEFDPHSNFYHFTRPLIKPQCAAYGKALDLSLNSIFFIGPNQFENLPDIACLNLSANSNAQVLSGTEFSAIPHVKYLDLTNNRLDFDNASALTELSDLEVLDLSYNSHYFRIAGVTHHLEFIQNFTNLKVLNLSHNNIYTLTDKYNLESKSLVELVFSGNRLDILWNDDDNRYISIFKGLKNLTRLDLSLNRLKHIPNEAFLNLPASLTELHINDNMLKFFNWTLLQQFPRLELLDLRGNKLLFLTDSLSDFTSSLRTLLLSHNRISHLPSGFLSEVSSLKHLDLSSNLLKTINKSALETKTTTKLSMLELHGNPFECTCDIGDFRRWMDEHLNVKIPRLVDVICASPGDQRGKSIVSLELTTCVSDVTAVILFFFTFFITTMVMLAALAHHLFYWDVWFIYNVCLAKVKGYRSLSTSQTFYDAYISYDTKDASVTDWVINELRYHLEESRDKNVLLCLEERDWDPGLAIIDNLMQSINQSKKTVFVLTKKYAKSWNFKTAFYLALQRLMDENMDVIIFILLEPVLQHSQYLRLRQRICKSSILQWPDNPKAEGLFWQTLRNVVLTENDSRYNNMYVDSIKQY
The assay can be described thus: TLR8 inhibition reporter assay (HEK-Blue SEAP reporter, R848 stimulation). Conditions: HEK-Blue cells overexpressing human TLR8, SEAP reporter, R848 15.9 μM, 22 hour incubation. The procedure, abridged: as §1

Another assay concerns the target T3, human TLR9 (Homo sapiens, UniProt Q9NR96).
T3 construct: host or cells: HEK-Blue cells
T3 sequence (Q9NR96 26-1032): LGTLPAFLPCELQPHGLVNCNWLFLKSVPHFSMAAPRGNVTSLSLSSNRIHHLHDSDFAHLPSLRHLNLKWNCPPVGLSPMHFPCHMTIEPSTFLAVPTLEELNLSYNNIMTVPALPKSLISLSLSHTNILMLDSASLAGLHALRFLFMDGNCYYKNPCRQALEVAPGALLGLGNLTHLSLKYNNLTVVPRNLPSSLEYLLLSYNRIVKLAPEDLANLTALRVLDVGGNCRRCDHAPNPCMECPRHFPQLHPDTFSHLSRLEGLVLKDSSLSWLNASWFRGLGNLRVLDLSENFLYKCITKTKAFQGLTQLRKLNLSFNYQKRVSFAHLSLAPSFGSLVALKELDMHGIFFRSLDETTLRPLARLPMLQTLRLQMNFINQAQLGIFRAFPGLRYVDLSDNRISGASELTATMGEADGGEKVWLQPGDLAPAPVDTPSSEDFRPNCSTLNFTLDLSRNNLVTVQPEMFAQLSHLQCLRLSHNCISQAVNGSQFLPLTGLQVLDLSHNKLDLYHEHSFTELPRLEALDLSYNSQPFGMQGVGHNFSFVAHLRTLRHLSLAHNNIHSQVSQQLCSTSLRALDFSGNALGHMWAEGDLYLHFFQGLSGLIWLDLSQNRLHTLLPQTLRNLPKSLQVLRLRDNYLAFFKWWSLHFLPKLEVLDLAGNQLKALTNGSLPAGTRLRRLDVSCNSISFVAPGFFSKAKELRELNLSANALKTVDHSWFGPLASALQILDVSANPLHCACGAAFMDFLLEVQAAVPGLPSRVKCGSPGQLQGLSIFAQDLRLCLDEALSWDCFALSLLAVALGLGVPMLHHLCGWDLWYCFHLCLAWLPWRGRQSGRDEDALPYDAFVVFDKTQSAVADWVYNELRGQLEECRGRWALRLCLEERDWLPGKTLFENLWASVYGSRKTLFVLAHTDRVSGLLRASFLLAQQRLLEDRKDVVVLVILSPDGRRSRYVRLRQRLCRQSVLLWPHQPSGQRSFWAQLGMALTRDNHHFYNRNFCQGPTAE
The assay can be described thus: TLR9 inhibition reporter assay (HEK-Blue SEAP reporter, ODN2006 stimulation). Conditions: HEK-Blue cells overexpressing human TLR9, SEAP reporter, ODN2006 5 nM, 22 hour incubation. Put shortly:
as §1

As usually defined, the IC50 is the point on the concentration scale where inhibition reaches its midpoint. For `Cc1nc(-c2[nH]c3ccc(C4CCN(C(C)C)CC4)cc3c2C(C)C)cn(C)c1=O` [Example 184, 5-(3-isopropyl-5-(1-isopropylpiperidin-4-yl)-1H-indol-2-yl)-1,3-dimethylpyrazin-2(1H)-one], the half-maximal inhibitory concentration (IC50) at human TLR7 came out at 71.8 nM; against human TLR8, 34.2 nM; at human TLR9, 2120 nM.
On the same counts, the results for `CC(C)c1c(-c2cc(Cl)c(=O)n(C)c2)[nH]c2ccc(C3CCN(C4CCOCC4)CC3)cc12` [Example 226, 3-chloro-5-(3-isopropyl-5-(1-(tetrahydro-2H-pyran-4-yl)piperidin-4-yl)-1H-indol-2-yl)-1-methylpyridin-2(1H)-one] are 3.8 nM, 7 nM and 10400 nM.
On the same counts, the results for `CCn1cc(-c2[nH]c3ccc(C4CCNCC4)cc3c2C(C)C)cc(Cl)c1=O` [Example 32, 3-chloro-1-ethyl-5-(3-isopropyl-5-(piperidin-4-yl)-1H-indol-2-yl) pyridin-2(1H)-one] are 1.8 nM, 17.2 nM and 1070 nM.
`COc1c(C)c(-c2[nH]c3ccc(C4CCN(C(=O)CN(C)C)CC4)cc3c2C(C)C)cn(C)c1=O` [Example 276, 5-(5-(1-(dimethylglycyl)piperidin-4-yl)-3-isopropyl-1H-indol-2-yl)-3-methoxy-1,4-dimethylpyridin-2(1H)-one]: the half-inhibitory concentration (IC50) was 52.2 nM against human TLR7, 80.2 nM at human TLR8 and 4760 nM on human TLR9.
On to `Cc1c(-c2[nH]c3ccc(C4CCN(CCC(C)(C)O)CC4)cc3c2C(C)C)cn(C)c(=O)c1C` [Example 73, 5-(5-(1-(3-hydroxy-3-methylbutyl)piperidin-4-yl)-3-isopropyl-1H-indol-2-yl)-1,3,4-trimethylpyridin-2(1H)-one], for which the half-inhibitory concentration (IC50) was found to be 8 nM against human TLR7, 3.3 nM at human TLR8 and 6070 nM against human TLR9.
Regarding `Cc1cc(-c2[nH]c3ccc(C4CCN(CC(=O)N(C)C)CC4)cc3c2C(C)C)cn(Cc2ccccc2)c1=O` [Example 164, 2-(4-(2-(1-benzyl-5-methyl-6-oxo-1,6-dihydropyridin-3-yl)-3-isopropyl-1H-indol-5-yl)piperidin-1-yl)-N,N-dimethylacetamide], the figures for the IC50 on human TLR7, at human TLR8 and on human TLR9 were 7 nM, 42.4 nM and 2560 nM, respectively.
On the same counts, the results for `Cc1c(-c2[nH]c3ccc(C4CCN(CC(O)CO)CC4)cc3c2C(C)C)cn(C)c(=O)c1Cl` (stereo not drawn) [Example 253, 3-chloro-5-(5-(1-(2,3-dihydroxypropyl)piperidin-4-yl)-3-isopropyl-1H-indol-2-yl)-1,4-dimethylpyridin-2(1H)-one] are 6.1 nM, 5.2 nM and 1240 nM.
On the same counts, the results for `CCc1cc(-c2[nH]c3ccc(C4CCNCC4)cc3c2C(C)C)cn(CC)c1=O` [Example 68, 1,3-diethyl-5-(3-isopropyl-5-(piperidin-4-yl)-1H-indol-2-yl)pyridin-2(1H)-one] are 8.5 nM, 9.8 nM and 5360 nM.
Take `Cc1cc(-c2[nH]c3ccc(C4CCN(Cc5cnn(C(C)C)c5)CC4)cc3c2C(C)C)cn(C)c1=O` [Example 227]: the half-inhibitory concentration (IC50) on human TLR7 was found to be 3.8 nM; against human TLR8, 4.1 nM; against human TLR9, 3040 nM.
On the same counts, the results for `Cc1c(-c2[nH]c3ccc(C4CCN(CC5(O)CCOCC5)CC4)cc3c2C(C)C)cn(C)c(=O)c1C` [Example 319, 5-(5-(1-((4-hydroxytetrahydro-2H-pyran-4-yl)methyl)piperidin-4-yl)-3-isopropyl-1H-indol-2-yl)-1,3,4-trimethylpyridin-2(1H)-one] are 10.9 nM, 1.6 nM and 4330 nM.
The corresponding values for `CC(C)CN1CCC(c2ccc3[nH]c(-c4cc(-c5cncnc5)c(=O)n(C)c4)c(C(C)C)c3c2)CC1` [Example 256, 5-(5-(1-isobutylpiperidin-4-yl)-3-isopropyl-1H-indol-2-yl)-1-methyl-3-(pyrimidin-5-yl)pyridin-2(1H)-one] are 12.4 nM, 1.7 nM and 1470 nM.
Take `CCc1cc(-c2[nH]c3ccc(C4CCNCC4)cc3c2C(C)C)cn(C)c1=O` [Example 67, 3-ethyl-5-(3-isopropyl-5-(piperidin-4-yl)-1H-indol-2-yl)-1-methylpyridin-2(1H)-one]: the results for the IC50 against human TLR7, on human TLR8 and at human TLR9 were 4.3 nM, 5.9 nM and 919 nM, respectively.
With `COc1cc(-c2[nH]c3ccc(C4CCN(C(=O)CN(C)C)CC4)cc3c2C(C)C)c(C)n(C)c1=O` [Example 275, 5-(5-(1-(dimethylglycyl)piperidin-4-yl)-3-isopropyl-1H-indol-2-yl)-3-methoxy-1,6-dimethylpyridin-2(1H)-one], the figures for the IC50 at human TLR7, at human TLR8 and on human TLR9 were 194 nM, 95.7 nM and 3190 nM, respectively.
